Measured values published in patent US20170051149A1, “AZOARYLS AS REVERSIBLY MODULATABLE TUBULIN INHIBITORS” (ECOLE NORMALE SUPERIEURE DE LYON, priority 2014, published 2017).

Legend:
[1] = UV-Vis absorption spectra of trans and cis isomers (λstrong, εE, λiso); format: physicochemical
Method: A(λmeas, λirrad) is used to indicate the measured UV-Vis absorption spectrum in the range 340 nm<λmeas<650 nm, as a function of the irradiating wavelength λirrad once PSS(λirrad) has been established. UV-Vis measurement of A(λmeas, λirrad) was performed. It was considered that the PSS had been established when the absorbance profile ceased to alter under continued irradiation. An isosbestic point (wavelength λiso) was found for each compound by examining where the absorption A(λmeas) was invariant with respect to changing λirrad. A(λmeas, dark) was also acquired with samples that had been kept in the dark for at least several hours, and it was assumed that no significant spectral contribution from the cis isomer was present in these spectra. […]
HPLC (high-performance liquid chromatography) was then used as described in Part A to measure ε*E(λ) and ε*Z(λ) (the separated absorption profiles of trans and cis isomers respectively, in arbitrary units which are not intercomparable in an absolute sense). It was approximated that these spectra would be identical in shape if measured under the UV-Vis conditions, so once ε*E(λ) and ε*Z(λ) were scaled appropriately relative to each other, these scaled spectra could be used to deconvolute A(λmeas, λirrad). This approximation was considered useful especially in the regions of greatest spectral interest, ie. regions of relatively strong absorption (since only rather well-absorbed wavelengths will allow significant photoisomerisation under finite photon flux). To place the arbitrary-unit absorption spectra on an absolute scale, the maximal absorption wavelength λstrong of the trans-isomer was first selected by examining A(λmeas, dark): typically, λstrong≈380 nm. with Expressing A(λstrong, dark) in units M^−1cm^−1, ε*E(λstrong) was then scaled so that εE(λstrong)=A(λstrong, dark), giving:
εE(λ)=ε*E(λ)×[A(λstrong,dark)/ε*E(λstrong)]
and the isosbestic point was used to scale the cis-isomer spectrum as per:
εZ(λ)=ε*Z(λ)×[εE(λiso)/ε*Z(λiso)]
However, using A(λstrong, dark) was preferred, since A(λiso) was typically so much smaller that the standard deviation in the scaled absorptivities which it generated was far greater.
Absorption spectra in cuvette (“UV-Vis”) were acquired on a Varian CaryScan 50 (1 cm, 100 μL or 1 mL volume) with Peltier cell temperature control unit maintained at 37° C., in PBS at pH˜7.4 containing a low percentage of cosolvent if needed (typically 2% MeCN or 5% DMSO). A ThorLabs Polychrome V monochromator with a fibre optic cable output directed into the cuvette was used to perform photoisomerisation studies by UV-Vis spectrophotometry although single LEDs of approximately 10-20 mW output, 15-20° cone angle, and 10-15 nm bandwidth FWHM, obtained commercially from Roithner Lasertechnik GmbH, were equally successful in providing repeatable monochromatic photoisomerisation. Separated spectra of trans and […] forms were acquired from the inline Diode Array Detector on the AGILENT 1260 SL coupled LC-MS system after HPLC separation. Fluorescence spectrophotometry (excitation and emission spectra) were acquired on a Varian CaryEclipse fluorescence spectrophotometer.
By the above procedure, the trans- and cis-isomers of each species were separated by HPLC as described in Part A, and ε*E(λ) and ε*Z(λ) were measured on the inline ultraviolet/visible Diode Array Detector; these were then scaled as outlined above. The parameters λstrong, εE(λstrong) and λiso are tabulated for selected compounds below (Table 1).

[2] = thermal reversion halflife of spontaneous cis->trans isomerisation; format: physicochemical
Text: Finally, trends in τ were ascertained by establishing the PSS at λstrong, then turning off the light source at time t0, and measuring A(λstrong, t) over time. Data were acquired for half an hour, or else the first three halflives (whichever was the shorter period), then fitted to the equation:
A(λstrong,t)=A(λstrong,dark)−[A(λstrong,dark)−A(λstrong,t0)]×e^−kt
This fit was used to return an in vitro halflife τ* for the cis->trans spontaneous thermal reversion isomerisation process, defined as τ=ln 2/k. It should be noted however, that azoaryl compounds' thermal reversion rates are known to depend strongly upon their microenvironment, such as pH and solvent/solvation effects^[7,38]. This was shown for compound (I.1), where a change of only 1.4 pH units gave a 25% change in τ*; note that different compounds are expected to respond very differently to changes in pH so no unifying trends are expected. Therefore the τ* acquired in vitro were considered appropriate only for qualitative intercomparison between samples (trend of τ* vs structure), rather than quantitative prediction of the τ values which might be experienced in cellulo or in vivo. Indeed, these in vitro τ* values appeared at least three times longer than what would have been expected based on in cellulo experiments where the pause time between activating pulses was varied.
Thermal reversion times were measured as described above. Those for selected compounds are presented below (Table 2).

[3] = fluorophore moiety range above 510 nm, PBS pH = 7.4, 20% MeCN

Compound | εE(λstrong) ([1]; PBS pH = 6, 20% MeCN) | λiso ([1]; PBS pH = 6, 20% MeCN) | λstrong ([1]; PBS pH = 6, 20% MeCN) | εE(λstrong) ([1]; PBS pH = 7.4, 20% MeCN) | λiso ([1]; PBS pH = 7.4, 20% MeCN) | λstrong ([1]; PBS pH = 7.4, 20% MeCN) | τ, reversion time ([2]; PBS pH = 6, 20% MeCN) | τ, reversion time ([2]; PBS pH = 7.4, 20% MeCN) | εE(λstrong) [1, 3] | λstrong [1, 3] | λiso ([1]; fluorophore moiety range, A(λ > 510) invariant upon photoswitching)
COc1ccc(N=Nc2cc(OC)c(OC)c(OC)c2)cc1O [I.1, 2-methoxy-5-((3,4,5-trimethoxyphenyl)diazenyl)phenol] | 17100 M⁻¹ cm⁻¹ | 465 nm | 380 nm | 17700 M⁻¹ cm⁻¹ | 470 nm | 375 nm | 8.4 min | 6.2 min | – | – | –
CCN(CC)c1ccc2c(-c3ccccc3C(=O)N3CCN(CCCOc4c(N=Nc5cc(OC)c(OC)c(OC)c5)ccc(OC)c4C)CC3)c3ccc(=[N+](CC)CC)cc-3oc2c1.CCN(CC)c1ccc2c(-c3ccccc3C(=O)N3CCN(CCCOc4c(N=Nc5cc(OC)c(OC)c(OC)c5)ccc(OC)c4C)CC3)c3ccc(=[N+](CC)CC)cc-3oc2c1.O=C[O-].O=C[O-] [I.25, N-(6-(diethylamino)-9-(2-(4-(3-(3-methoxy-2-methyl-6-((3,4,5-trimethoxyphenyl)diazenyl)phenoxy)propyl)piperazine-1-carbonyl)phenyl)-3H-xanthen-3-ylidene)-N-ethylethanaminium bis(formate) salt] | – | – | – | 15300 M⁻¹ cm⁻¹ | 460 nm | 375 nm | – | 16.2 min | (66600) M^−1cm^−1 | (565) nm | (510 ff) nm
